Measured values reported in patent publication US5229265A, “Process for analyzing clastogenic agents” (Litron Laboratories, priority 1990, dated 1993).

Test system: polychromatic cells (PCEs)
Test: PCE count in blood by flow cytometry
Format: in vivo, mouse
Details: mice dosed with DMBA
Procedure: When two dyes are used for simultaneous micronucleus and PCE discrimination, the cell suspension is prepared as follows: The Hoechst 33258 working solution described above is prepared and is filtered through an 0.2 micron Acro-disk (Gilman Sciences). In addition, a propidium iodide (PI) working solution is prepared (5 mg PI/100 ml phosphate buffered saline (PBS)). A buffer-dye solution is then prepared by adding the PI solution (100 μl) and Hoechst 33258 working solution (25 μl) to PBS (867.5 μl). The resulting buffer-dye solution is then dispensed (992.5 μl) into samples tubes. A sample of fixed blood (15 μl) is then added to the corresponding tube. When blood from a malaria (P. berghei) infected mouse was fixed and stained by this procedure, the bivariate pattern shown in FIG. 1B resulted, in which a stronger red fluorescence signal was obtained. In this case, good resolution is achieved if BSA is omitted from the stained cell suspension. The pH of the stained solution is important for good fluorescence emission profiles and resolution of the different cell populations. With Hoechst 33258 and propidium iodide, good results can be obtained in the range from pH 6 to pH 8. Lower or higher pH levels cause a broadening of the fluorescence patterns which adversely affect the resolution of the PCes and micronucleated cells. Operationally,it is advisable to store the fixed samples and analyze freshly stained samples.
Although it is inappropriate to directly compare the number of MNs in the 0 hr and 96 hr samples because of this PCE change, it is possible to normalize the data to take into account said change. An increase in the number of PCEs will cause a decrease in the total number of MNs counted in the PCE window for a 96 hour sample. […]
Another staining embodiment of this invention involves the use of dual parameter data acquisition in conjunction with two dyes, Hoechst 33258 and propidium iodide so as to analyze both MNs and PCEs. […] Propidium iodide endows the PCEs with a strong red fluorescence signal which pulls them out of the RBC contour. […]

SMILES: Cc1c2ccccc2c(C)c2c1ccc1ccccc12 [DMBA, dimethyl benzathracene]
- production of PCEs: production of PCEs is suppressed
